According to US20080254152A1, “Methods for Reducing the Effects of Stress on Skin Condition” (priority 2003, published 2008):
Where no end group is shown, it is not given here.

Test system: ICAM-1 expression in HUVECs
Test: ICAM-1 expression in HUVECs chronically treated with CRH, then PMA
Assay type: cell-based, Human
Conditions: data not shown
Description: Following this, the cells were oxidatively stressed for 24 hours with 1 μM PMA (Sigma P8139).
Receptor antagonists were added to the cells during the pre-treatment period. These included the Glucocorticoid Receptor Antagonist; 2 μM Mifepristone (Sigma M8046) and two CRH receptor antagonists; 200 nM Astressin (Sigma A4933) and 200 nM α-helical CRF peptide antagonist (Sigma C2917).
ICAM-1 protein in each cell lysate was estimated using the Human sICAM-1 DuoSet ELISA kit (R&D Systems DY720) according to the manufacturer's instructions.
The capture antibody was diluted to a final concentration of 4 μg/ml in PBS and 100 μl was used to coat each well of a 96-well microtitre plate overnight at room temperature. The plate was then washed three times with wash buffer (0.05% Tween 20 in PBS). Each well received 300 μl of blocking buffer (1% BSA, 5% sucrose and 0.05% sodium azide in PBS), and the plate was incubated at room temperature for 1 hour before being washed as before. Each cell lysate was then diluted 1/200 in reagent diluent (1% BSA in PBS) and 100 μl added to duplicate wells of the antibody coated plate. Eight ICAM-1 standards were prepared in reagent diluent, at concentrations ranging from 0 to 1000 pg/ml, and duplicate 100 μl standards were added to the appropriate wells on the plate. A separate set of standards was routinely used for each plate. The plate was incubated at room temperature for 2 hours before being washed again. 100 μl of detection antibody, diluted to a final concentration of 100 ng/ml, was added to each well and the plate incubated at room temperature for 2 hours. […] The absorbance of the plates was measured at 450 nm with the correction wavelength set at 570 nm.
A standard curve was plotted of mean absorbance versus ICAM-1 concentration and the line of best fit calculated by regression analysis. The unknown concentration of ICAM-1 in the samples was calculated from this, taking the lysate dilution factor into account.
To normalise for differences in cell number and total protein concentration, the final result was expressed as ng ICAM-1 per mg of total protein. […]

“CRH: Corticotrophin Releasing Hormone, Calbiochem 05-23-0050 (SEEPPISLDLTFHLLREVLEMARAEQLAQQAHSNRKLMEII; ends and bridges not checked; UniProt P06850 154-194, looked up)” was tested, and the “Change in ICAM-1 secretion after chronic CRH treatment” value (1 to 100 nM CRH daily for 5 days, then PMA, vs untreated cells) was “significant increase”.
In the case of astressin, the “Effect on increased induction of ICAM-1 post-oxidative stress” value (200 nM CRH receptor antagonist during 5-day CRH pre-treatment, then PMA) is reported as “only partially blocked” and the “Level of ICAM-1 relative to that induced by oxidative stress after pre-treatment with CRH for five days” value (200 nM CRH receptor antagonist during CRH pre-treatment) is reported as “approximately half”.
